Measured values as given in patent US20160274120A1, “METHODS OF DETERMINING WHETHER THE WNT SIGNALING PATHWAY IS UPREGULATED IN A TUMOR” (ICAHN SCHOOL OF MEDICINE AT MOUNT SINAI, priority 2009, published 2016).

Columns and labels:
Format in all cases: cell-based, human
TCF reporter activity = assay: TCF mediated luciferase reporter activity (TOP/FOP) in NSCLC cell lines
Description: 24 hours before infection, stable reporter cell lines expressing TOP or FOP TCF luciferase and renilla luciferase were plated in 6 well plates at I×IO^5 cells/well. The following day cells were infected with lentiviruses expressing different Wnt antagonists, selected with 2 μg/ml puromycin for 3 days, lysed and processed for luciferase reporter assay using the dual luciferase reporter Kit (Promega) according to the manufacturer's protocol. Luciferase reporter activity was calculated by dividing the ratio TOP/RL by the FOP/RL ratio. Results were normalized to the results with vector transduced cultures.
analysis, cells were co-infected with TOP or FOP firefly luciferase mixed with a lentivirus expressing renilla luciferase (RL) used to normalize for infection efficiency (1:20-1:40 ratio). To assess the effects of FRP1 and DKK1 on TCF luciferase reporter activity, stable reporter cell lines were plated in 6 well plates and infected with vector, FRP1 or DKK1 lentiviruses. Cells were selected for 3 days with puromycin, lysed and processed for dual luciferase analysis. To generate stable inducible lines, cells were infected consecutively with tetracycline trans-activator (tTa) expressing lentivirus, selected for two weeks with 5-10 μg/ml blasticidin, followed by a second infection with lentiviruses expressing inducible FRP1, DKK1, DNTCF-4 or DNTCF-4-mOrange or empty vector, and selected for 4-7 days in 2 μg/ml puromycin in the presence of 10 ng/ml doxycycline. For induction of the antagonists, cells were trypsinized, washed with PBS and plated into 10 cm plates in the presence or absence of doxycyclin. Control cells expressing tTa or empty vector were processed in the same way. All infections were performed for 16 hr in the presence of 8 μg/ml polybrene.

axin2 = assay: Real time PCR quantification of axin2 mRNA expression in NSCLC cells
Description: (§1) Total RNA was isolated from cells using the Trizol Reagent (Invitrogen) according to the manufacturer's protocol. Semi-quantitative RT-PCR screen was performed using One Step RT-PCR Kit (Invitrogen) according to the manufacturer's protocol. PCR products were separated on 1% agarose gel. 5 μg total RNA was reverse transcribed using Superscript II reverse transcriptase (Invitrogen). Quantitative PCR was performed using SybrGreen 2× master mix (Roche) on a MJ Opticon or Stratagene MxPro3005. 50 ng cDNA were amplified as follows: 94° C. for 15 min, 94° C. for 15 s, 60° C. for 30 s, 72° C. for 1 min. Steps 2 through 4 were repeated for 40 cycles. Each reaction was performed in duplicate, and results of 3 independent experiments were used for statistical analysis. Relative mRNA expression levels were quantified using the ΔΔC(t) method (Pfaffl, 2001). Results were normalized to those for TATA Binding Protein (TBP). Primer sequences can be found in Tables 4 and 5.

Wnt2 = assay: shRNA knockdown quantification of Wnt2 mRNA; details: H23 cells, lentiviral shRNA
From the text: (§2) An shRNA construct targeting human Wnt2 was obtained from Open Biosystems. The 21 bp sequence was 5′-[…]-3′ (SEQ ID NO: 1). An shRNA construct targeting GFP containing 21 bp sequence 5′ […]-3′ (SEQ ID NO: 2), was obtained from Addgene. An shRNA construct targeting human Wnt3a was generated and had the following sequence 5′-GGCGTGGCTTCTGCAGAA-3′ (SEQ ID NO: 61). Viruses were produced in 293T cells using FuGENE 6 (Roche) as described above.
as §1

Wnt3a = assay: shRNA knockdown quantification of Wnt3a mRNA; details: H1819 cells, lentiviral shRNA
From the text: as §2, §1

Row | Substance | TCF mediated luciferase reporter activity (TCF reporter activity; H23 cells, Wnt2 knockdown) | axin2 expression (axin2; H23 cells, Wnt2 knockdown) | knock down of Wnt2 mRNA expression (Wnt2) | TCF mediated luciferase reporter activity (TCF reporter activity; H1819 cells, Wnt3a knockdown) | axin2 expression (axin2; H1819 cells, Wnt3a knockdown) | knock down of Wnt3a mRNA expression (Wnt3a)
1 | Wnt2 shRNA: shRNA construct targeting human Wnt2 from Open Biosystems, 5′-GCTCATGTACTCTCAGGACAT-3′ (SEQ ID NO: 1) (GCTCATGTACTCTCAGGDCAT; chemistry not fully specified) [reference compound] | significant decrease | significant decrease | 80% |  |  | 
2 | Wnt3a shRNA: shRNA construct targeting human Wnt3a, 5′-GGCGTGGCTTCTGCAGAA-3′ (SEQ ID NO: 61) [reference compound] |  |  |  | significant decrease | significant decrease | 70%
